From US20070128217A1 (priority 2003, published 2007)

What was measured:
[1] = system: rabbit serum obtained by immunizing a rabbit with the SARS-CoV strain Frankfurt 1; format: binding; parameters: Binding of a rabbit serum to linear peptides / Binding of a rabbit serum to looped peptides / Rabbit serum linear peptides / Rabbit serum looped peptides / Binding of a rabbit serum to linear peptides of protein N of SARS-CoV Urbani (Rabbit serum linear peptides) / Binding of a rabbit serum to looped/cyclic peptides of protein N of SARS-CoV Urbani (Rabbit serum looped peptides): unit not given here
[2] = system: control sera (pooled serum of ten healthy LUMC hospital workers; commercial negative donor pooled serum from the Dutch bloodbank); format: binding, human; parameters: Binding of Control serum LUMC to linear peptides / Binding of Control serum Blood-bank to linear peptides / Binding of Control serum LUMC to looped peptides / Binding of Control Serum Blood-Bank to Looped peptides / Binding of Control serum LUMC to linear peptides of the protein M of SARS-CoV Urbani / Binding of Control serum Blood-bank to linear peptides of the protein M of SARS-CoV Urbani / Binding of Control serum LUMC to looped peptides of the protein M of SARS-CoV Urbani / Binding of Control Serum Blood-Bank to Looped peptides of the protein M of SARS-CoV Urbani: unit not given here
[3] = system: antibodies in sera from SARS patients (sera 1a, 1b, 2, 6, 37, 62, London, SARS-yellow, SARS-green); format: binding, human; parameters: Binding of serum 6 to linear peptides of protein X1 of SARS-CoV Urbani / Binding of serum 37 to linear peptides of protein X1 of SARS-CoV Urbani / Binding of serum 6 to looped/cyclic peptide (PEPSCAN-ELISA) / Binding of serum 37 to looped/cyclic peptide (PEPSCAN-ELISA) / Binding of serum 37 to looped/cyclic peptides of protein X1 of SARS-CoV Urbani / Binding of serum 6 to linear peptides of protein X2 / Binding of serum 37 to linear peptides of protein X2 / Binding of serum 37 to looped/cyclic peptides of protein X2 of SARS-CoV Urbani / Binding of serum 6 to linear peptides of protein M of SARS-CoV Urbani / Binding of serum 37 to linear peptides of protein M of SARS-CoV Urbani / Binding of serum 6 to looped/cyclic peptides of protein M of SARS-CoV Urbani / Binding of serum 37 to looped/cyclic peptides of protein M of SARS-CoV Urbani / Binding of serum 6 to linear peptides of protein X3 of SARS-CoV Urbani / Binding of serum 37 to linear peptides of protein X3 of SARS-CoV Urbani / Binding of serum 37 to looped/cyclic peptides of protein X3 of SARS-CoV Urbani / Binding of serum 6 to linear peptides of protein X4 of SARS-CoV Urbani / Binding of serum 37 to linear peptides of protein X4 of SARS-CoV Urbani / Binding of serum 37 to looped/cyclic peptides of protein X4 of SARS-CoV Urbani / Binding of serum 6 to linear peptides of protein X5 of SARS-CoV Urbani / Binding of serum 37 to linear peptides of protein X5 of SARS-CoV Urbani / Binding of serum 37 to looped/cyclic peptides of protein X5 of SARS-CoV Urbani / Binding of serum 6 to linear peptides of protein N of SARS-CoV Urbani / Binding of serum 37 to linear peptides of protein N of SARS-CoV Urbani / Binding of serum 6 to linear peptide (PEPSCAN-ELISA) / Binding of serum 1a to looped/cyclic peptides of protein N of SARS-CoV Urbani / Binding of serum 1b to looped/cyclic peptides of protein N of SARS-CoV Urbani / Binding of serum 2 to looped/cyclic peptides of protein N of SARS-CoV Urbani / Binding of serum 6 to looped/cyclic peptides of protein N of SARS-CoV Urbani / Binding of serum 37 to looped/cyclic peptides of protein N of SARS-CoV Urbani / Binding of serum 62 to looped/cyclic peptides of protein N of SARS-CoV Urbani / Binding of serum London to looped/cyclic peptides of protein N of SARS-CoV Urbani / Binding of serum SARS-green to looped/cyclic peptides of protein N of SARS-CoV Urbani: unit not given here

Sequence	Binding of a rabbit serum to linear peptides [1]	Binding of a rabbit serum to looped peptides [1]	Binding of Control Serum Blood-Bank to Looped peptides [2]	Binding of Control serum Blood-bank to linear peptides [2]	Binding of Control serum LUMC to linear peptides [2]	Binding of Control serum LUMC to looped peptides [2]	Binding of serum 1a to linear peptides of protein X1 of SARS-CoV Urbani [3]	Binding of serum 1a to looped/cyclic peptide (PEPSCAN-ELISA) [3]	Binding of serum 1b to linear peptides of protein X1 of SARS-CoV Urbani [3]	Binding of serum 1b to looped/cyclic peptide (PEPSCAN-ELISA) [3]	Binding of serum 2 to linear peptides of protein X1 of SARS-CoV Urbani [3]	Binding of serum 2 to looped/cyclic peptide (PEPSCAN-ELISA) [3]	Binding of serum 6 to linear peptides of protein X1 of SARS-CoV Urbani [3]	Binding of serum 6 to looped/cyclic peptide (PEPSCAN-ELISA) [3]	Binding of serum 37 to linear peptides of protein X1 of SARS-CoV Urbani [3]	Binding of serum 37 to looped/cyclic peptide (PEPSCAN-ELISA) [3]	Binding of serum 62 to linear peptides of protein X1 of SARS-CoV Urbani [3]	Binding of serum London to linear peptides of protein X1 of SARS-CoV Urbani [3]	Binding of serum SARS-green to linear peptides of protein X1 of SARS-CoV Urbani [3]	Binding of serum SARS-yellow to linear peptides of protein X1 of SARS-CoV Urbani [3]	also measured
GVAFLAVFQSATKII	0.9	0.6	0.7	0.5	0.7	0.7	0.7	0.6	0.6	0.4	0.8	0.6	0.7	0.5	0.6	0.6	0.6	0.2	0.3	0.2	Binding of serum 62 to looped/cyclic peptide (PEPSCAN-ELISA) [3]: 0.6; Binding of serum London to looped/cyclic peptide (PEPSCAN-ELISA) [3]: 0.4; Binding of serum SARS-green to looped/cyclic peptide (PEPSCAN-ELISA) [3]: 0.3; Binding of serum SARS-yellow to looped/cyclic peptide (PEPSCAN-ELISA) [3]: 0.3
GWLVIGVAFLAVFQS	0.8	0.6	0.8	0.5	0.6	0.7	0.7	0.7	0.6	0.5	0.5	0.7	0.5	0.4	0.6	0.6	0.6	0.3	0.2	0.5	Binding of serum 62 to looped/cyclic peptide (PEPSCAN-ELISA) [3]: 0.8; Binding of serum London to looped/cyclic peptide (PEPSCAN-ELISA) [3]: 0.3; Binding of serum SARS-green to looped/cyclic peptide (PEPSCAN-ELISA) [3]: 0.4; Binding of serum SARS-yellow to looped/cyclic peptide (PEPSCAN-ELISA) [3]: 0.6
GYFTEVYYQLESTQI	0.1	0.5	0.6	0.4	0.4	0.7	0.7		0.5		0.5		0.4		0.6		0.5	0.3	0.3	0.4	Binding of serum 1a to looped/cyclic peptides of protein X1 of SARS-CoV Urbani [3]: 0.6; Binding of serum 1b to looped/cyclic peptides of protein X1 of SARS-CoV Urbani [3]: 0.5; Binding of serum 2 to looped/cyclic peptides of protein X1 of SARS-CoV Urbani [3]: 0.5; Binding of serum 6 to looped/cyclic peptides of protein X1 of SARS-CoV Urbani [3]: 0.4; Binding of serum 37 to looped/cyclic peptides of protein X1 of SARS-CoV Urbani [3]: 0.6; Binding of serum 62 to looped/cyclic peptides of protein X1 of SARS-CoV Urbani [3]: 0.6; Binding of serum London to looped/cyclic peptides of protein X1 of SARS-CoV Urbani [3]: 0.2; Binding of serum SARS-green to looped/cyclic peptides of protein X1 of SARS-CoV Urbani [3]: 0.4; Binding of serum SARS-yellow to looped/cyclic peptides of protein X1 of SARS-CoV Urbani [3]: 0.4
HATATIPLQASLPFG	0.1	0.5	0.7	0.8	0.6	0.7	0.9	0.8	0.8	0.6	0.6	0.5	0.6	0.5	0.8	0.6	0.7	0.3	0.2	0.4	Binding of serum 62 to looped/cyclic peptide (PEPSCAN-ELISA) [3]: 0.6; Binding of serum London to looped/cyclic peptide (PEPSCAN-ELISA) [3]: 0.2; Binding of serum SARS-green to looped/cyclic peptide (PEPSCAN-ELISA) [3]: 0.4; Binding of serum SARS-yellow to looped/cyclic peptide (PEPSCAN-ELISA) [3]: 0.4
HFAFACADGTRHTYQ			0.8	0.6	0.7	0.7															Rabbit serum linear peptides [1]: 0.4; Rabbit serum looped peptides [1]: 0.1; Binding of serum 1a to linear peptides of protein X4 of SARS-CoV Urbani [3]: 0.7; Binding of serum 1a to looped/cyclic peptides of protein X4 of SARS-CoV Urbani [3]: 0.6; Binding of serum 1b to linear peptides of protein X4 of SARS-CoV Urbani [3]: 0.5; Binding of serum 1b to looped/cyclic peptides of protein X4 of SARS-CoV Urbani [3]: 0.5; Binding of serum 2 to linear peptides of protein X4 of SARS-CoV Urbani [3]: 0.4; Binding of serum 2 to looped/cyclic peptides of protein X4 of SARS-CoV Urbani [3]: 0.6; Binding of serum 6 to linear peptides of protein X4 of SARS-CoV Urbani [3]: 0.6; Binding of serum 6 to looped/cyclic peptides of protein X4 of SARS-CoV Urbani [3]: 0.6; Binding of serum 37 to linear peptides of protein X4 of SARS-CoV Urbani [3]: 0.6; Binding of serum 37 to looped/cyclic peptides of protein X4 of SARS-CoV Urbani [3]: 0.6; Binding of serum 62 to linear peptides of protein X4 of SARS-CoV Urbani [3]: 0.6; Binding of serum 62 to looped/cyclic peptides of protein X4 of SARS-CoV Urbani [3]: 0.5; Binding of serum London to linear peptides of protein X4 of SARS-CoV Urbani [3]: 0.6; Binding of serum London to looped/cyclic peptides of protein X4 of SARS-CoV Urbani [3]: 0.2; Binding of serum SARS-green to linear peptides of protein X4 of SARS-CoV Urbani [3]: 0.6; Binding of serum SARS-green to looped/cyclic peptides of protein X4 of SARS-CoV Urbani [3]: 0.2; Binding of serum SARS-yellow to linear peptides of protein X4 of SARS-CoV Urbani [3]: 0.1; Binding of serum SARS-yellow to looped/cyclic peptides of protein X4 of SARS-CoV Urbani [3]: 0.4
